Data from PubChem BioAssay (NCI).
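Method: 48-hour compound exposure of cells in 96-well plates, five concentrations, linear interpolation of endpoints. The concentration for full growth arrest is given as TGI.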

Assays:
Assay in all cases: NCI-60 cell line screen, 48 h
[1] = system: HOP-62 NSCLC
[2] = system: EKVX NSCLC
[3] = system: SK-OV-3 ovarian
[4] = system: 786-0 renal
[5] = system: SF-268 CNS
[6] = system: MDA-N
[7] = system: U251 CNS
[8] = system: M14 melanoma
[9] = system: SK-MEL-28 melanoma
[10] = system: UACC-62 melanoma
[11] = system: RXF 393 renal
[12] = system: CAKI-1 renal
[13] = system: HT29 colon
[14] = system: COLO 205 colon
[15] = system: MDA-MB-231 breast
[16] = system: RPMI-8226 leukemia
[17] = system: PC-3 prostate
[18] = system: TK-10 renal
[19] = system: MCF7 breast
[20] = system: NCI-H460 lung
[21] = system: OVCAR-8 ovarian
[22] = system: SF-295 CNS
[23] = system: BT-549 breast
[24] = system: HS 578T breast
[25] = system: OVCAR-5 ovarian
[26] = system: HOP-92 NSCLC
[27] = system: CCRF-CEM leukemia
[28] = system: HCT-15 colon
[29] = system: OVCAR-3 ovarian
[30] = system: K-562 leukemia
[31] = system: ACHN renal
[32] = system: NCI-H226 lung
[33] = system: OVCAR-4 ovarian
[34] = system: MDA-MB-435
[35] = system: T-47D breast
[36] = system: SK-MEL-5 melanoma
[37] = system: NCI/ADR-RES ovarian
[38] = system: A549 NSCLC
[39] = system: NCI-H23 lung
[40] = system: HCT-116 colon
[41] = system: KM12 colon
[42] = system: SNB-19 CNS
[43] = system: SNB-75 CNS
[44] = system: HCC-2998 colon
[45] = system: IGROV1 ovarian
[46] = system: DU-145 prostate
[47] = system: SN12C renal
[48] = system: UO-31 renal
[49] = system: UACC-257 melanoma
[50] = system: SW-620 colon
[51] = system: SF-539 CNS
[52] = system: MOLT-4 leukemia
[53] = system: A498 renal
[54] = system: NCI-H522 lung
[55] = system: SK-MEL-2 melanoma
[56] = system: MALME-3M melanoma
[57] = system: HL-60(TB) leukemia

N#CCCN(CCC#N)c1ccc(C(N=Nc2ccccc2)=Nc2ccc(Cl)cc2)cc1 gave a TGI [1] greater than 100 µM, a TGI [2] greater than 100 µM and a TGI [3] greater than 100 µM. For the same molecule, the TGI [4] was greater than 100 µM, the TGI [5] was greater than 100 µM and the TGI [6] was greater than 100 µM. It also gave a TGI [7] greater than 100 µM, a TGI [8] greater than 100 µM and a TGI [9] greater than 100 µM. It also gave a TGI [10] greater than 100 µM, a TGI [11] greater than 100 µM and a TGI [12] greater than 100 µM. It also gave a TGI [13] greater than 100 µM, a TGI [14] greater than 100 µM and a TGI [15] greater than 100 µM. For the same molecule, the TGI [16] was greater than 100 µM, the TGI [17] was greater than 100 µM and the TGI [18] was greater than 100 µM. For the same molecule, the TGI [19] was greater than 100 µM, the TGI [20] was greater than 100 µM and the TGI [21] was greater than 100 µM. It also gave a TGI [22] greater than 100 µM, a TGI [23] greater than 100 µM and a TGI [24] greater than 100 µM. For the same molecule, the TGI [25] was greater than 100 µM, the TGI [26] was greater than 100 µM and the TGI [27] was greater than 100 µM. The TGI [28] was greater than 100 µM, the TGI [29] was greater than 100 µM and the TGI [30] was greater than 100 µM. For the same molecule, the TGI [31] was greater than 100 µM, the TGI [32] was greater than 100 µM and the TGI [33] was greater than 100 µM. It also gave a TGI [34] greater than 100 µM, a TGI [35] greater than 100 µM and a TGI [36] greater than 100 µM. For the same molecule, the TGI [37] was greater than 100 µM, the TGI [38] was greater than 100 µM and the TGI [39] was greater than 100 µM. For the same molecule, the TGI [40] was greater than 100 µM, the TGI [41] was greater than 100 µM and the TGI [42] was greater than 100 µM. The TGI [43] was greater than 100 µM, the TGI [44] was greater than 100 µM and the TGI [45] was greater than 100 µM. For the same molecule, the TGI [46] was greater than 100 µM, the TGI [47] was greater than 100 µM and the TGI [48] was greater than 100 µM. It also gave a TGI [49] greater than 100 µM, a TGI [50] greater than 100 µM and a TGI [51] greater than 100 µM. The TGI [52] was greater than 100 µM, the TGI [53] was greater than 100 µM and the TGI [54] was greater than 100 µM.

Molecule Cc1nc2c(cc1C(=O)N/N=C/c1ccc([N+](=O)[O-])cc1)c(=O)n(C)c(=O)n2C has a TGI [1] of 35.8 µM, a TGI [2] greater than 100 µM and a TGI [3] greater than 100 µM. For the same molecule, the TGI [4] was greater than 100 µM, the TGI [5] was greater than 100 µM and the TGI [6] was greater than 100 µM. The TGI [7] was 57 µM, the TGI [55] was greater than 100 µM and the TGI [8] was greater than 100 µM. For the same molecule, the TGI [9] was greater than 100 µM, the TGI [10] was greater than 100 µM and the TGI [11] was 65 µM. It also gave a TGI [12] greater than 100 µM, a TGI [13] greater than 100 µM and a TGI [14] greater than 100 µM. It also gave a TGI [15] of 65.7 µM, a TGI [16] greater than 100 µM and a TGI [17] greater than 100 µM. The TGI [18] was greater than 100 µM, the TGI [19] was greater than 100 µM and the TGI [20] was greater than 100 µM. For the same molecule, the TGI [56] was greater than 100 µM, the TGI [21] was greater than 100 µM and the TGI [22] was greater than 100 µM. It also gave a TGI [23] greater than 100 µM, a TGI [24] of 86.6 µM and a TGI [25] greater than 100 µM. It also gave a TGI [57] greater than 100 µM, a TGI [27] greater than 100 µM and a TGI [28] greater than 100 µM. For the same molecule, the TGI [29] was greater than 100 µM, the TGI [30] was greater than 100 µM and the TGI [31] was greater than 100 µM. The TGI [32] was greater than 100 µM, the TGI [33] was greater than 100 µM and the TGI [34] was greater than 100 µM. The TGI [35] was greater than 100 µM, the TGI [36] was greater than 100 µM and the TGI [37] was greater than 100 µM. The TGI [38] was greater than 100 µM, the TGI [39] was greater than 100 µM and the TGI [40] was greater than 100 µM. It also gave a TGI [41] greater than 100 µM, a TGI [42] of 56.7 µM and a TGI [43] greater than 100 µM. It also gave a TGI [44] greater than 100 µM, a TGI [45] greater than 100 µM and a TGI [46] greater than 100 µM. For the same molecule, the TGI [47] was greater than 100 µM, the TGI [48] was greater than 100 µM and the TGI [49] was greater than 100 µM. It also gave a TGI [50] greater than 100 µM and a TGI [52] greater than 100 µM.
